The values that follow are results of earlier work, collected in patent US20040197397A1, “Drug delivery system for treatment of urinary incontinence” (Watson Pharmaceuticals, Inc., priority 2002, published 2004).

The conditions of the data set: free base.

In the case of `CCN(CC)CC#CCOC(=O)C(O)(c1ccccc1)C1CCCCC1` (stereo not shown) [Oxybutynin free base, Oxybutynin], the pKa (as a rule, the negative logarithm of the acid dissociation constant) is reported as 10.3.
